Reference: PubChem BioAssay AID248 (DTP/NCI, 2004)
Toxic doses and inconclusive results are not listed. Cut-off read from the data, not from the text of the source: active = T/C of 150% or more; inactive = T/C below 125%.

System: L1210 leukemia ip in BDF1 mice, survival T/C
Test: NCI In Vivo Anticancer Drug Screen. Data for tumor model L1210 Leukemia (intraperitoneal) in B6D2F1 (BDF1) mice
Settings: endpoint: mean survival time, higher = longer survival
How it was run: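 Value reflects the ratio of survival in compound-treated mice to survival in vehicle-treated controls, with both groups carrying the same transplanted tumor.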

[1] = dose: 100.0 mg/kg/injection, schedule: Q04DX003 (ip), vehicle: saline
[2] = dose: 200.0 mg/kg/injection, schedule: Q04DX003 (ip), vehicle: saline
[3] = dose: 400.0 mg/kg/injection, schedule: Q04DX003 (ip), vehicle: saline
[4] = dose: 100.0 mg/kg/injection, schedule: Q01DX009 (ip), vehicle: saline
[5] = dose: 200.0 mg/kg/injection, schedule: Q01DX009 (ip), vehicle: saline
[6] = dose: 400.0 mg/kg/injection, schedule: Q01DX009 (ip), vehicle: saline
[7] = dose: 50.0 mg/kg/injection, schedule: Q01DX009 (ip), vehicle: Klucel (hydroxypropylcellulose) (HPC)
[8] = dose: 100.0 mg/kg/injection, schedule: Q01DX009 (ip), vehicle: Klucel (hydroxypropylcellulose) (HPC)
[9] = dose: 100.0 mg/kg/injection, schedule: Q04DX003 (ip), vehicle: Klucel (hydroxypropylcellulose) (HPC)
[10] = dose: 100.0 mg/kg/injection, schedule: Q04DX003 (ip), vehicle: saline with Tween-80
[11] = dose: 200.0 mg/kg/injection, schedule: Q01DX009 (ip), vehicle: Klucel (hydroxypropylcellulose) (HPC)
[12] = dose: 100.0 mg/kg/injection, schedule: Q01DX001 (ip), vehicle: saline
[13] = dose: 200.0 mg/kg/injection, schedule: Q01DX001 (ip), vehicle: saline
[14] = dose: 400.0 mg/kg/injection, schedule: Q01DX001 (ip), vehicle: saline
[15] = dose: 100.0 mg/kg/injection, schedule: Q01DX009 (ip), vehicle: saline with Tween-80
[16] = dose: 200.0 mg/kg/injection, schedule: Q01DX009 (ip), vehicle: saline with Tween-80
[17] = dose: 400.0 mg/kg/injection, schedule: Q01DX009 (ip), vehicle: saline with Tween-80
[18] = dose: 100.0 mg/kg/injection, schedule: Q01DX001 (ip), vehicle: saline with Tween-80
[19] = dose: 50.0 mg/kg/injection, schedule: Q01DX009 (ip), vehicle: saline with Tween-80

Measured: T/C

C[Si](C)O[Si](C)C
inactive: [1] 91 % of control | [2] 101 % of control | [3] 101 % of control

O=[N+]([O-])c1cc2c(cc1/C=N/N=C1c3ccccc3-c3ccccc31)OCO2
inactive: dose: 75.0 mg/kg/injection, schedule: Q01DX001 (ip), vehicle: other 94 % of control | dose: 150.0 mg/kg/injection, schedule: Q01DX001 (ip), vehicle: other 92 % of control

O=C1OC2(c3ccc(O)cc3Oc3cc(O)ccc32)C2C3CCC(O3)C12 (stereo not given)
inactive: dose: 100.0 mg/kg/injection, schedule: Q04DX002 (ip), vehicle: Klucel (hydroxypropylcellulose) (HPC) 100 % of control | dose: 200.0 mg/kg/injection, schedule: Q04DX002 (ip), vehicle: Klucel (hydroxypropylcellulose) (HPC) 118 % of control

CC(C)=CCO
inactive: [4] 96 % of control | [5] 93 % of control | [6] 88 % of control

N#CCCOCCOCCC#N
inactive: [1] 109 % of control | [2] 101 % of control | [3] 95 % of control

Clc1ccc(Cl)c(CBr)c1Cl
inactive: dose: 25.0 mg/kg/injection, schedule: Q04DX003 (ip), vehicle: Klucel (hydroxypropylcellulose) (HPC) 98 % of control | [7] 98 % of control | dose: 50.0 mg/kg/injection, schedule: Q04DX003 (ip), vehicle: Klucel (hydroxypropylcellulose) (HPC) 101 % of control | [8] 88 % of control | [9] 101 % of control | [10] 100 % of control | [11] 90 % of control

O=c1[nH]c2ccc(Cl)cc2c(=O)o1
inactive: [12] 92 % of control | [4] 100 % of control | [13] 95 % of control | [5] 98 % of control | [14] 101 % of control | [6] 90 % of control

FC(F)(F)c1ccc2c(c1)N(CCCN1CCN(CC[n+]3ccccc3)CC1)c1ccccc1S2
inactive: dose: 1.56 mg/kg/injection, schedule: Q01DX009 (ip), vehicle: saline 95 % of control | dose: 3.12 mg/kg/injection, schedule: Q01DX009 (ip), vehicle: saline 95 % of control | dose: 6.25 mg/kg/injection, schedule: Q01DX009 (ip), vehicle: saline 110 % of control | dose: 9.2 mg/kg/injection, schedule: Q01DX009 (ip), vehicle: saline 120 % of control | dose: 12.5 mg/kg/injection, schedule: Q04DX003 (ip), vehicle: saline 101 % of control | dose: 14.0 mg/kg/injection, schedule: Q01DX009 (ip), vehicle: saline 109 % of control | dose: 25.0 mg/kg/injection, schedule: Q04DX003 (ip), vehicle: saline 97 % of control

O=C(Cl)c1ccc(C(Cl)(Cl)Cl)cc1
inactive: [9] 95 % of control | dose: 200.0 mg/kg/injection, schedule: Q04DX003 (ip), vehicle: Klucel (hydroxypropylcellulose) (HPC) 111 % of control | dose: 400.0 mg/kg/injection, schedule: Q04DX003 (ip), vehicle: Klucel (hydroxypropylcellulose) (HPC) 104 % of control

CCCCCCCC1CCCCC1
inactive: dose: 50.0 mg/kg/injection, schedule: Q01DX001 (ip), vehicle: saline 101 % of control | [12] 98 % of control | [13] 101 % of control | [14] 98 % of control

COc1ccc(COC(=O)Nc2ccccc2C(F)(F)F)cc1
inactive: dose: 100.0 mg/kg/injection, schedule: Q01DX009 (ip), vehicle: gum acacia 89 % of control | dose: 200.0 mg/kg/injection, schedule: Q01DX009 (ip), vehicle: gum acacia 89 % of control

O=C(/C=C/c1c(Cl)cccc1Cl)c1ccc(Cl)cc1
inactive: [15] 98 % of control | [10] 90 % of control | [16] 95 % of control | dose: 200.0 mg/kg/injection, schedule: Q04DX003 (ip), vehicle: saline with Tween-80 90 % of control | [17] 90 % of control | dose: 400.0 mg/kg/injection, schedule: Q04DX003 (ip), vehicle: saline with Tween-80 91 % of control

O=C(O)CC1(c2ccccc2)OC(=O)c2ccccc21 (stereo not given)
inactive: dose: 50.0 mg/kg/injection, schedule: Q04DX002 (ip), vehicle: saline with Tween-80 92 % of control | dose: 100.0 mg/kg/injection, schedule: Q04DX002 (ip), vehicle: saline with Tween-80 92 % of control | dose: 200.0 mg/kg/injection, schedule: Q04DX002 (ip), vehicle: saline with Tween-80 99 % of control | dose: 400.0 mg/kg/injection, schedule: Q04DX002 (ip), vehicle: saline with Tween-80 89 % of control

C=CC[n+]1ccc2ccccc2c1
inactive: dose: 25.0 mg/kg/injection, schedule: Q01DX009 (ip), vehicle: saline 108 % of control | dose: 50.0 mg/kg/injection, schedule: Q01DX009 (ip), vehicle: saline 102 % of control | [4] 105 % of control

CN(CCO)N=Nc1ccccc1Cl
inactive: dose: 25.0 mg/kg/injection, schedule: Q01DX009 (ip), vehicle: other 101 % of control | dose: 50.0 mg/kg/injection, schedule: Q01DX009 (ip), vehicle: other 100 % of control | dose: 100.0 mg/kg/injection, schedule: Q01DX009 (ip), vehicle: other 94 % of control

O=[N+]([O-])c1ccc(\C=C/C=C/C=C/C2(CCl)OCCO2)cc1
inactive: [18] 91 % of control | dose: 200.0 mg/kg/injection, schedule: Q01DX001 (ip), vehicle: saline with Tween-80 87 % of control

CC(=O)NNC(=O)Nc1cccc(C(F)(F)F)c1
inactive: [19] 94 % of control | [15] 91 % of control

CCC[CH2][Sn]1([CH2]CCC)[O]OC(C)(CC)[O]1 (stereo not given)
inactive: dose: 6.25 mg/kg/injection, schedule: Q01DX009 (ip), vehicle: saline sonified 108 % of control

CC(C)(C)c1cc(/C=N/NC(=O)CC2CCCCC2)cc(C(C)(C)C)c1O
inactive: [15] 92 % of control | [16] 92 % of control | [17] 97 % of control

CC12CCC3C(C1)C(C(=O)O2)C(=O)OC3(C)C (stereo not given)
inactive: dose: 75.0 mg/kg/injection, schedule: Q01DX009 (ip), vehicle: Klucel (hydroxypropylcellulose) (HPC) 99 % of control | dose: 150.0 mg/kg/injection, schedule: Q01DX009 (ip), vehicle: Klucel (hydroxypropylcellulose) (HPC) 101 % of control

CCCCOc1ccc(/C=N/NC(=S)Nc2ccccc2)cc1
inactive: [8] 97 % of control | [11] 98 % of control | dose: 400.0 mg/kg/injection, schedule: Q01DX009 (ip), vehicle: Klucel (hydroxypropylcellulose) (HPC) 95 % of control

CCCCOC(=O)c1ccc(OC(=O)NC)cc1
inactive: [15] 107 % of control | [16] 101 % of control | [17] 112 % of control

COc1ccc(C(O)CCN2CCCCC2)cc1 (stereo not given)
inactive: [18] 112 % of control

O=C(NC(c1ccccc1)C(Cl)(Cl)Cl)c1ccccc1 (stereo not given)
inactive: [7] 97 % of control | [8] 97 % of control | [11] 97 % of control

CCOC(=O)C(CC)C(O)c1cccc(OC)c1 (stereo not given)
inactive: [19] 94 % of control | [15] 94 % of control | [16] 94 % of control

C=CCc1ccc(C)c(C)c1O
inactive: dose: 100.0 mg/kg/injection, schedule: Q01DX009 (sc), vehicle: olive oil, sesame oil, peanut oil 101 % of control | dose: 100.0 mg/kg/injection, schedule: Q04DX003 (sc), vehicle: olive oil, sesame oil, peanut oil 99 % of control | dose: 200.0 mg/kg/injection, schedule: Q01DX009 (sc), vehicle: olive oil, sesame oil, peanut oil 101 % of control | dose: 200.0 mg/kg/injection, schedule: Q04DX003 (sc), vehicle: olive oil, sesame oil, peanut oil 97 % of control | dose: 400.0 mg/kg/injection, schedule: Q01DX009 (sc), vehicle: olive oil, sesame oil, peanut oil 101 % of control | dose: 400.0 mg/kg/injection, schedule: Q04DX003 (sc), vehicle: olive oil, sesame oil, peanut oil 91 % of control

Cc1cc(C)n2nc(N)nc2n1
inactive: dose: 100.0 mg/kg/injection, schedule: Q01DX001 (ip), vehicle: carboxymethylcellulose (CMC) 101 % of control | dose: 200.0 mg/kg/injection, schedule: Q01DX001 (ip), vehicle: carboxymethylcellulose (CMC) 95 % of control | dose: 400.0 mg/kg/injection, schedule: Q01DX001 (ip), vehicle: carboxymethylcellulose (CMC) 95 % of control
